The assay concerns the target T1, recombinant human mGluR4a receptors (Homo sapiens, UniProt Q14833).
T1 construct: expressed in transfected cells
Description: Fluorescent cell based Ca2+ mobilization assay (FLIPR) on HEK-293 cells expressing human mGluR4. As to conditions: positive allosteric modulation in presence of EC25 glutamate; HEK-293 hmGluR4; mean of at least three independent experiments in duplicate; read-out: Ca^2+ Flux (mean EC50). The text has this: mGluR4 Assay on HEK-Expressing Human mGluR4
The compounds of the present invention are positive allosteric modulators of mGluR4 receptor. Their activity was examined on recombinant human mGluR4a receptors by detecting changes in intracellular Ca^2+concentration, using the fluorescent Ca^2+-sensitive dye Fluo4-(AM) and a Fluorometric Imaging Plate Reader (FLIPR, Molecular Devices, Sunnyvale, Calif.).
The cDNA encoding the human metabotropic glutamate receptor (hmGluR4), (accession number NM_000841.1, NCBI Nucleotide database browser), was subcloned into an expression vector containing also the hygromycin resistance gene. In parallel, the cDNA encoding a G protein allowing redirection of the activation signal to intracellular calcium flux was subcloned into a different expression vector containing also the puromycin resistance gene. Transfection of both these vectors into HEK293 cells with PolyFect reagent (Qiagen) according to supplier's protocol, and hygromycin and puromycin treatment allowed selection of antibiotic resistant cells which had integrated stably one or more copies of the plasmids. Positive cellular clones expressing hmGluR4 were identified in a functional assay measuring changes in calcium fluxes in response to glutamate or selective known mGluR4 orthosteric agonists and antagonists.
HEK-293 cells expressing hmGluR4 were maintained in media containing DMEM, dialyzed Fetal Calf Serum (10%), Glutamax™ (2 mM), Penicillin (100 units/mL), Streptomycin (100 μg/mL), Geneticin (100 μg/mL) and Hygromycin-B (40 μg/mL) and puromycin (1 μg/mL) at 37° C./5% CO2.
Human mGluR4 HEK-293 cells were plated out 24 hours prior to FLIPR^384 assay in black-walled, clear-bottomed, poly-L-ornithine-coated 384-well plates at a density of 25,000 cells/well in a glutamine/glutamate free DMEM medium containing foetal bovine serum (10%), penicillin (100 units/mL) and streptomycin (100 μg/mL) at 37° C./5% CO2.
On the day of the assay, the medium was aspirated and the cells were loaded with a 3 μM solution of Fluo4-AM (LuBioScience, Lucerne, Switzerland) in 0.03% pluronic acid. After 1 hour at 37° C./5% CO2, the non incorporated dye was removed by washing cell plate with the assay buffer and the cells were left in the dark at room temperature for […] before testing. All assays were performed in a pH=7.4 buffered-solution containing 20 mM HEPES, 143 mM NaCl, 6 mM KCl, 1 mM MgSO4, 1 mM CaCl2, 0.125 mM sulfapyrazone and 0.1% glucose.
After 10 s of basal fluorescence recording, various concentrations of the compounds of the invention were added to the cells. Changes in fluorescence levels were first monitored for 180 s in order to detect any agonist activity of the compounds. Then the cells were stimulated by an EC25 glutamate concentration for an additional 110 s in order to measure enhancing activities of the compounds of the invention. EC25 glutamate concentration is the concentration giving 25% of the maximal glutamate response.
The concentration-response curves of representative compounds of the present invention were generated using the Prism GraphPad software (Graph Pad Inc, San Diego, USA). The curves were fitted to a four-parameter logistic equation:
(Y=Bottom+(Top−Bottom)/(1+10̂((LogEC50−X)*Hill Slope)
allowing the determination of EC50 values.
The Table 3 below represents the mean EC50 obtained from at least three independent experiments of selected molecules performed in duplicate.

T1 sequence (Q14833 33-912): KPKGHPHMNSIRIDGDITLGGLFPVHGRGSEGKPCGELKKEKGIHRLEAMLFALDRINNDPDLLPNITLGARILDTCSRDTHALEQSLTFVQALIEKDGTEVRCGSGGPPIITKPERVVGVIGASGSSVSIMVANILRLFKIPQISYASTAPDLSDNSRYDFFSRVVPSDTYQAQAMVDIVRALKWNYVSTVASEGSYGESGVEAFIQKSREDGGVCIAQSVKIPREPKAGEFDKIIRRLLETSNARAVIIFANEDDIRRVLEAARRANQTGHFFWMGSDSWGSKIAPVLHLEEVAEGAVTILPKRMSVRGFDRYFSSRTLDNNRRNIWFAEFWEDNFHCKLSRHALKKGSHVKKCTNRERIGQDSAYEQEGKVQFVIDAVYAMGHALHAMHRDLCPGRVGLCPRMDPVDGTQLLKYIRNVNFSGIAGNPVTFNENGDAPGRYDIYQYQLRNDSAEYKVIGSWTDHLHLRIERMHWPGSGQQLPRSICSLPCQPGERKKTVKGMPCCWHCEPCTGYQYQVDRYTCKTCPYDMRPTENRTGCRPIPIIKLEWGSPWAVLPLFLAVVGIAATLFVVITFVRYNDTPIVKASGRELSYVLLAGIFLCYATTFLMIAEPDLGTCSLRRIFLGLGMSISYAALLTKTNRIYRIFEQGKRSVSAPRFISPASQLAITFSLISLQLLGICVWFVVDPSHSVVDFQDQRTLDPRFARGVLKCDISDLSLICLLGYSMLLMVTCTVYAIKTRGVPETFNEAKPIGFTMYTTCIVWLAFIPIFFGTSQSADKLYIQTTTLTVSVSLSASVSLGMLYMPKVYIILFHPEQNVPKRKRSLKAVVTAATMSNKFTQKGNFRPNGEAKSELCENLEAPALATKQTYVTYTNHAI

The EC50 is the concentration at which the effect is half-maximal. Take `COc1ccnc(Nc2nc3c(s2)COC(C)c2[nH]ncc2-3)n1` (stereo not shown) [Compound 1-14, (4-Methoxy-pyrimidin-2-yl)-(6-methyl-6,7-dihydro-4H-5-oxa-3-thia-1,7,8-triaza-cyclopenta[e]azulen-2-yl)-amine]: the EC50 was less than 0.1 µM. As to `CC(C)C1OCc2sc(Nc3ncc(F)cn3)nc2-c2cn[nH]c21` (stereo not shown) [Compound 1-28, (5-Fluoro-pyrimidin-2-yl)-(6-isopropyl-6,7-dihydro-4H-5-oxa-3-thia-1,7,8-triaza-cyclopenta[e]azulen-2-yl)-amine], the EC50 is less than 0.1 µM. As to `CCC1OCc2sc(Nc3nccc(OC)n3)nc2-c2cn[nH]c21` (stereo not shown) [Compound 1-22, (6-Ethyl-6,7-dihydro-4H-5-oxa-3-thia-1,7,8-triaza-cyclopenta[e]azulen-2-yl)-(4-methoxy-pyrimidin-2-yl)-amine], the half-maximal effective concentration (EC50) was less than 0.1 µM. With `Cc1ccnc(Nc2nc3c(s2)CCC(C(F)(F)F)c2[nH]ncc2-3)n1` (stereo not shown) [Compound 1-27, (4-Methyl-pyrimidin-2-yl)-(6-trifluoromethyl-4,5,6,7-tetrahydro-3-thia-1,7,8-triaza-cyclopenta[e]azulen-2-yl)-amine], the EC50 lay within 0.1 to 1 µM.

For the origin of these results see patent publication US20130252944A1, “NOVEL FUSED PYRAZOLE DERIVATIVES AND THEIR USE AS ALLOSTERIC MODULATORS OF METABOTROPIC GLUTAMATE RECEPTORS” (priority 2010, published 2013).
